Read-outs that look alike come from different tables or passages of the source.
Key:
[1] = Conductometry: molar conductivity of silver complexes in DMSO; assay type: physicochemical; conditions: 1.0 mM in DMSO, calculated as monocarbene (NHC)AgX
Description: Since both the neutral monocarbene and the ionic biscarbene form of the complexes may exist in various proportions in the solution, conductometry studies were performed to reveal the dominant structure. The molar conductivity of 1.0 mM solutions of each complex in DMSO was determined after different periods up to 24 h using AgNO3 as 1:1 electrolyte reference (see Table 1). According to the literature, the expected range of molar conductivity for 1:1 electrolytes in DMSO is 35–90 S cm^2 mol^–1.[45],[46]
Conductivity measurements were performed using an Apera Instruments EC9500 conductivity meter. Solutions (as indicated, otherwise 1.0 mM) of all compounds were prepared using freshly distilled DMSO with a specific electrical conductivity of ≤3 × 10^–8 S cm^–1. The conductivities were measured at 25 ± 2 °C immediately after complete dissolution and after 24 h.

[2] = system: E. coli (DSM1116, ATCC 9637); assay: microbe, parasite or virus in culture; assay type: cell-based, Escherichia coli
Description: (§1) The antibacterial effect of the silver NHC complexes and selected ligands was evaluated in two Gram-positive [Enterococcus faecium, methicillin resistant S. aureus, (MRSA)] and in four Gram-negative (Acinetobacter baumannii, Escherichia coli, Klebsiella pneumoniae, and Pseudomonas aeruginosa) pathogenic bacterial strains using broth microdilution assays. The resulting minimal inhibitory concentrations (MICs, Table 2) and EC50 (Table S6) were determined by a curve fitting procedure. Silver nitrate (AgNO3), SSD, and various antibiotics were used as references.
(§2) The following strains of ESKAPE panel were utilized and maintained at 37 °C in MHB (21 g/L Müller Hinton broth, pH 7.4) or TSY (30 g/L trypticase soy broth, 3 g/L yeast extract, pH 7.0–7.2) media: A. baumannii (DSM 30007, ATCC 19606), E. coli (DSM1116, ATCC 9637), K. pneumoniae (DSM 11678, ATCC33495), P. aeruginosa PA7 (DSM 24068) in MHB; E. faecium (DSM 20477, ATCC 19434), and S. aureus MRSA (DSM 11822, ICB 25701) in TSY. MIC values were determined following a standardized protocol in broth microdilution assays. The compounds and reference substances (AgNO3 and SSD) were serially diluted from 64 to 1 μg/mL. Starting inocula of 2–8 × 10^5 CFU/mL in MHB or TSY media at 37 °C were used, and serial dilutions were carried out in 96-well microtiter plates in duplicate. After incubation of the plates for 22 h at 37 °C, the absorbance at 600 nm was measured using The Spark multimode microplate reader (Tecan Trading AG). The MIC values for the tested compounds were determined in three independent experiments and presented in μM with standard errors and also in μg/mL. Amikacin (P. aeruginosa), linezolid (S. aureus), and ciprofloxacin (all other strains) served as positive controls. The MIC and EC50 values were determined by curve fitting with Sigma Plot. To determine the effect of the culture medium on the activity of silver compounds, the assay was performed using MHB, TSY, or DMEM (Gibco). To observe the effect of individual components of TSY medium, antibacterial tests were performed using MHB with addition of tryptone (17 g/L) or yeast extract (3 g/L, both were purchased from Sigma).

[3] = system: P. aeruginosa PA7 (DSM 24068); assay: microbe, parasite or virus in culture; assay type: cell-based, Pseudomonas aeruginosa; conditions: for MIC: DSM24068, 22 h
Description: as §1, §2

[4] = system: K. pneumoniae (DSM 11678, ATCC33495); assay: Broth microdilution antibacterial assay; assay type: cell-based, Klebsiella pneumoniae
Description: as §1, §2

[5] = system: A. baumannii (DSM 30007, ATCC 19606); assay: Broth microdilution antibacterial assay; assay type: cell-based, Acinetobacter baumannii
Description: as §1, §2

[6] = system: S. aureus MRSA (DSM 11822, ICB 25701); assay: microbe, parasite or virus in culture; assay type: cell-based, methicillin resistant S. aureus
Description: as §1
The importance of the culture medium used in antibacterial assays has been pointed out for antibiotics and in particular for silver.[53]−[55] In our recent studies, tryptic soy yeast (TSY) broth has been used for growing Gram-positive bacteria. Two components thereof, tryptone and yeast extract, have been reported to affect the antibacterial activity of silver nitrate.[55] Moreover, such an effect was also observed for other media containing at least one of those components.[11],[53] […] Silver nitrate served as a reference, and three different growth media were studied, namely, Müller-Hinton Broth (MHB, commonly used for Gram-negative bacteria), TSY broth (commonly used for Gram-positive bacteria), and DMEM supplemented with 10% FCS (commonly used for growth of mammalian and human cells).
as §2

[7] = system: E. faecium (DSM 20477, ATCC 19434); assay: Broth microdilution antibacterial assay; assay type: cell-based, Enterococcus faecium
Description: as §1, §2

[8] = mean ± standard error, n = 3, MHB
[9] = mean ± standard error, n = 3, MHB, 22 h
[10] = mean ± standard error, n = 3, TSY, 22 h
[11] = Escherichia coli, n = 3, MHB, 22 h, read-out: MIC E. coli (value in brackets)
[12] = Pseudomonas aeruginosa, read-out: MIC P. aeruginosa (value in brackets), n = 3, MHB, 22 h
[13] = Klebsiella pneumoniae, 22 h, read-out: MIC K. pneumoniae
[14] = Klebsiella pneumoniae, 22 h, read-out: MIC K. pneumoniae (value in brackets)
[15] = Acinetobacter baumannii, 22 h, read-out: MIC A. baumannii
[16] = Acinetobacter baumannii, 22 h, read-out: MIC A. baumannii (value in brackets)
[17] = Staphylococcus aureus, 22 h, read-out: MIC MRSA (value in brackets)
[18] = Enterococcus faecium, 22 h, read-out: MIC E. faecium, mean ± standard error, n = 3, TSY, 22 h

Question: Which “Molar conductivity ΛM” value ([1]; 1 h after dissolution) does the source give for `CCn1[c](=[Ag][Br])n(Cc2ccccn2)c2ccccc21` [2b, Bromido (1-Ethyl-3-(pyridin-2-ylmethyl)-benzimidazol-2-ylidene) Silver(I)] here?
Answer: The value was 5.47 S cm^2 mol^–^1.

Question: What about the “Molar conductivity ΛM” value ([1]; 24 h after dissolution) of the same compound?
Answer: Its value is 5.07 S cm^2 mol^–^1.

Question: What about the EC50 [2, 8] of the same compound?
Answer: The EC50 was 35.6 ± 9.4 µM.

Question: And the “MIC E. coli” value [2, 9]?
Answer: The value was 50.2 ± 12.5 µM.

Question: And the “MIC E. coli (value in brackets)” value ([2]; n = 3, MHB, 22 h)?
Answer: Its value is 21 µg/mL.

Question: And the “MIC P. aeruginosa” value [3, 9]?
Answer: Its value is 9.4 ± 0.0 µM.

Question: And the EC50 ([3]; mean ± standard error, n = 3, MHB, read-out: EC50 P. aeruginosa)?
Answer: Its EC50 is 6.9 ± 0.5 µM.

Question: And the “MIC P. aeruginosa (value in brackets)” value ([3]; n = 3, MHB, 22 h)?
Answer: The value was 4 µg/mL.

Question: What about the “MIC K. pneumoniae” value [4, 9] of the same compound?
Answer: The value was 15.7 ± 3.1 µM.

Question: What about the EC50 ([4]; mean ± standard error, n = 3, MHB; read-out: EC50 K. pneumoniae) of the same compound?
Answer: Its EC50 is 9 ± 1 µM.

Question: What about the “MIC K. pneumoniae (value in brackets)” value ([4]; n = 3, MHB, 22 h) of the same compound?
Answer: The value was 7 µg/mL.

Question: What about the “MIC A. baumannii” value [5, 9] of the same compound?
Answer: The value was 12.5 ± 3.1 µM.

Question: And the EC50 ([5]; mean ± standard error, n = 3, MHB; read-out: EC50 A. baumannii)?
Answer: The EC50 was 2.2 ± 0.3 µM.

Question: What about the “MIC A. baumannii (value in brackets)” value ([5]; n = 3, MHB, 22 h) of the same compound?
Answer: Its value is 5 µg/mL.

Question: What about the “MIC MRSA” value [6, 10] of the same compound?
Answer: Its value is 151 ± 0.0 µM.

Question: And the EC50 ([6]; mean ± standard error, n = 3, TSY; read-out: EC50 MRSA)?
Answer: Its EC50 is 88.5 ± 1.6 µM.

Question: What about the “MIC MRSA (value in brackets)” value ([6]; n = 3, TSY, 22 h) of the same compound?
Answer: Its value is 64 µg/mL.

Question: And the “MIC E. faecium” value [7, 10]?
Answer: The value was 151 ± 0.0 µM.

Question: And the EC50 ([7]; mean ± standard error, n = 3, TSY, read-out: EC50 E. faecium)?
Answer: The EC50 was 128 ± 0.9 µM.

Question: And the “MIC E. faecium (value in brackets)” value ([7]; n = 3, TSY, 22 h)?
Answer: Its value is 64 µg/mL.

Question: Which EC50 ([2]; Escherichia coli, mean ± standard error, n = 3, MHB) does the source give for `CC(C)[n+]1cn(Cc2ccccn2)c2ccccc21.[Cl-]` [L3a, 1-Isopropyl-3-(pyridin-2-ylmethyl)-benzimidazolium Chloride] here?
Answer: Its EC50 is greater than 250 µM.

Question: And the MIC ([2]; Escherichia coli, mean ± standard error, n = 3, MHB, 22 h, read-out: MIC E. coli)?
Answer: The MIC was greater than 250 µM.

Question: And the MIC [2, 11]?
Answer: The MIC was greater than 128 µg/mL.

Question: What about the MIC [3, 12] of the same compound?
Answer: Its MIC is greater than 128 µg/mL.

Question: And the MIC ([3]; Pseudomonas aeruginosa, read-out: MIC P. aeruginosa, mean ± standard error, n = 3, MHB, 22 h)?
Answer: The MIC was greater than 250 µM.

Question: What about the EC50 ([3]; Pseudomonas aeruginosa, DSM24068, read-out: EC50 P. aeruginosa, mean ± standard error, n = 3, MHB) of the same compound?
Answer: The EC50 was greater than 250 µM.

Question: And the MIC [4, 13]?
Answer: Its MIC is greater than 250 µM.

Question: And the MIC [4, 14]?
Answer: Its MIC is greater than 128 µg/mL.

Question: And the EC50 ([4]; Klebsiella pneumoniae, read-out: EC50 K. pneumoniae)?
Answer: Its EC50 is greater than 250 µM.

Question: And the MIC [5, 15]?
Answer: The MIC was greater than 250 µM.

Question: What about the MIC [5, 16] of the same compound?
Answer: The MIC was greater than 128 µg/mL.

Question: And the EC50 ([5]; Acinetobacter baumannii, read-out: EC50 A. baumannii)?
Answer: The EC50 was greater than 250 µM.

Question: And the MIC ([6]; Staphylococcus aureus, 22 h, read-out: MIC MRSA)?
Answer: The MIC was greater than 250 µM.

Question: And the MIC [6, 17]?
Answer: The MIC was greater than 128 µg/mL.

Question: And the EC50 ([6]; Staphylococcus aureus, read-out: EC50 MRSA)?
Answer: Its EC50 is greater than 250 µM.

Question: And the MIC ([7]; Enterococcus faecium, 22 h, read-out: MIC E. faecium)?
Answer: Its MIC is greater than 250 µM.

Question: And the MIC ([7]; Enterococcus faecium, 22 h, read-out: MIC E. faecium (value in brackets))?
Answer: Its MIC is greater than 128 µg/mL.

Question: And the EC50 ([7]; Enterococcus faecium, read-out: EC50 E. faecium, mean ± standard error, n = 3, TSY)?
Answer: Its EC50 is greater than 250 µM.

Question: With `O=C(O)c1cn(C2CC2)c2cc(N3CCNCC3)c(F)cc2c1=O` [ciprofloxacin, reference compound] as the compound, how does the MIC ([2]; Escherichia coli, 22 h, read-out: MIC E. coli) read?
Answer: Its MIC is 0.5 µM.

Question: What about the MIC ([2]; Escherichia coli, 22 h, read-out: MIC E. coli (value in brackets)) of the same compound?
Answer: The MIC was 0.16 µg/mL.

Question: What about the MIC ([2]; Escherichia coli, read-out: MIC E. coli DSM 1116 in MHB) of the same compound?
Answer: The MIC was 0.47 µM.

Question: And the MIC ([2]; Escherichia coli, read-out: MIC E. coli DSM 1116 in MHB + tryptone)?
Answer: The MIC was 0.47 µM.

Question: And the MIC ([2]; Escherichia coli, read-out: MIC E. coli DSM 1116 in MHB + yeast extract)?
Answer: The MIC was 0.47 µM.

Question: And the MIC [4, 13]?
Answer: Its MIC is 2.5 ± 0.9 µM.

Question: And the MIC [4, 14]?
Answer: Its MIC is 0.8 µg/mL.

Question: And the MIC [5, 15]?
Answer: The MIC was 0.63 ± 0.22 µM.

Question: And the MIC [5, 16]?
Answer: Its MIC is 0.2 µg/mL.

Question: And the MIC ([7]; Enterococcus faecium, 22 h, read-out: MIC E. faecium (value in brackets), n = 3, TSY, 22 h)?
Answer: The MIC was 5 µg/mL.

Question: What about the MIC [7, 18] of the same compound?
Answer: Its MIC is 15.1 ± 1 µM.

Question: Which results are given for `CC(C)[n+]1cn(Cc2ccccn2)c2ccccc21.[Br-]` [L3b, 1-Isopropyl-3-(pyridin-2-ylmethyl)-benzimidazolium Bromide]?
Answer: MIC [2, 11]: > 128 µg/mL; EC50 [2, 8]: > 250 µM; MIC ([2]; mean ± standard error, n = 3, MHB, 22 h, read-out: MIC E. coli): > 250 µM; MIC [3, 12]: > 128 µg/mL; MIC P. aeruginosa [3, 9]: > 250 µM; EC50 ([3]; read-out: EC50 P. aeruginosa, mean ± standard error, n = 3, MHB): > 250 µM; MIC [4, 14]: > 128 µg/mL; MIC K. pneumoniae [4, 9]: > 250 µM; EC50 ([4]; read-out: EC50 K. pneumoniae; mean ± standard error, n = 3, MHB): > 250 µM; MIC [5, 16]: ≥ 128 µg/mL; MIC A. baumannii [5, 9]: > 250 µM; EC50 ([5]; read-out: EC50 A. baumannii; mean ± standard error, n = 3, MHB): > 250 µM; MIC [6, 17]: > 128 µg/mL; MIC MRSA [6, 10]: > 250 µM; EC50 ([6]; read-out: EC50 MRSA; mean ± standard error, n = 3, TSY): > 250 µM; MIC [7, 18]: ≥ 250 µM; EC50 ([7]; read-out: EC50 E. faecium, mean ± standard error, n = 3, TSY): ≥ 250 µM

Reference: PMC11091889, “Silver Organometallics that are Highly Potent Thioredoxin and Glutathione Reductase Inhibitors: Exploring the Correlations of Solution Chemistry with the Strong Antibacterial Effects” (ACS Infectious Diseases, 2024)
